Experimental findings from patent publication US20100029761A1, “NOVEL COMPOUNDS, PHARMACEUTICAL COMPOSITIONS CONTAINING SAME, AND METHODS OF USE FOR SAME” (priority 2005, published 2010) are described below.

A short description of one experiment: Weight loss screen. Type of experiment: in vivo, Balb/C mice. The settings on record: 60 mg/kg intraperitoneally. Here is the method: Balb/C mice (Jackson Labs) are utilized for the initial weight loss screening. Animals are housed in temperature and 12 hour day/night cycle rooms and fed mouse chow and water ad lib. Three mice are utilized for each compound tested with vehicle controls in triplicate per experiment. For the experiments, mice are housed separately for each compound tested three mice to a cage. Compounds are diluted in DMSO at 10 mg/ml and mice are injected intraperitoneally with 60 mg/kg in approximately 100 μl of DMSO or with vehicle alone. Mice are observed and weighed daily; average weights and standard errors are computed with Excel (Microsoft). The experiment continues until treated animals reach their pretreatment weights. Select compounds are tested in animals housed in metabolic cages. Dosing of animals are identical to the screening experiments with three animals to a single metabolic cage. Animal weights, water and food consumption, and urine and feces production are measured daily.

A further experiment can be described thus: Weight loss, DIO. Type of experiment: in vivo. As to conditions: 20 mg/kg.
Experiment [1] has as its system Staphylococcus aureus (ATCC # 29213). In words: Broth microdilution MIC, S. aureus. Type of experiment: cell-based. As to conditions: for MIC: Staphylococcus aureus, ATCC29213. The method, then:
(§1) A broth microdilution assay is used to assess the antimicrobial activity of the compounds. […] Microorganisms tested include Staphylococcus aureus (ATCC # 29213), Enterococcus faecalis (ATCC # 29212), Pseudomonas aeruginosa (ATCC # 27853), and Escherichia coli (ATCC # 25922). The assay is performed in two growth media, Mueller Hinton Broth and Trypticase Soy Broth. A blood (Tsoy/5% sheep blood) agar plate is inoculated from frozen stocks maintained in T soy broth containing 10% glycerol and incubated overnight at 37° C. Colonies are suspended in sterile broth so that the turbidity matches the turbidity of a 0.5 McFarland standard. The inoculum is diluted 1:10 in sterile broth (Mueller Hinton or Trypticase soy) and 195 ul is dispensed per well of a 96-well plate. The compounds to be tested, dissolved in DMSO, are added to the wells in 5 ul volume at the following concentrations: 25, 12.5, 6.25, 3.125, 1.56 and 0.78 ug/ml in duplicate. Additional concentrations are tested if required. 5 ul of DMSO added to duplicate wells are the vehicle control. Serial dilutions of positive control compounds, vancomycin (E. faecalis and S. aureus) and tobramycin (E. coli and P. aeruginosa), are included in each run. After 24 hours of incubation at 37° C., plates are read at OD600 on a Molecular Devices SpectraMax Plus Spectrophotometer. Average OD600 values are computed using SOFTmax Pro Software (Molecular Devices) and MIC values are determined by linear regression analysis using Prism version 3.02 (Graph Pad Software, San Diego). The MIC is defined as the concentration of compound required to produce an OD600 reading equivalent to 10% of the vehicle control reading.
(Dilution methods test growth across graded concentrations, often in twofold steps.)

Experiment [2] relates to Pseudomonas aeruginosa (ATCC # 27853). The experiment in a line: Broth microdilution MIC, P. aeruginosa. As to conditions: for MIC: Pseudomonas aeruginosa, ATCC27853. Type of experiment: cell-based. The method, then: as §1
For experiment [3], the system named is Enterococcus faecalis (ATCC # 29212). The experiment in a line: Broth microdilution MIC, E. faecalis. Type of experiment: cell-based. The settings on record: for MIC: Enterococcus faecalis, ATCC29212. The method, then:
as §1

The subject of experiment [4] is Escherichia coli (ATCC # 25922). In words: Broth microdilution MIC, E. coli. Type of experiment: cell-based. The settings on record: for Ecoli/MH (MIC): Mueller Hinton Broth; for Ecoli/Tsoy (MIC): Trypticase Soy Broth. The method, then: as §1
Setting [5] is: Mueller Hinton Broth, read-out: SA/MH (MIC).
Setting [6] is: Trypticase Soy Broth, read-out: SA/Tsoy (MIC).
The mark [7] stands for this setting: Trypticase Soy Broth, read-out: PSAE/Tsoy (MIC).
Setting [8] is: Trypticase Soy Broth, read-out: EF/Tsoy (MIC).
[9] abbreviates: Mueller Hinton Broth, read-out: PSAE/MH (MIC).

Each structure is given as a SMILES string. ≈ marks a conversion by molar mass, not a printed value. Like-named read-outs stand apart in the source and are kept apart here.

With `CCCCCCCCC1OC(=O)C(=O)C1C(=O)OCC` (stereo not drawn) [Compound 1], the “Weight Loss” value in the experiment “Weight loss screen” (day 4) is reported as 60 mg/kg: 9.7% (day 4). Besides, in “Weight loss, DIO” (day 3), the “Weight Loss DIO” value is listed as “DIO: 20 mg/kg: 4.6% (day 3)”. For the same compound, the MIC came to 32 µg/mL (≈ 113 µM) in experiment [1] (setting [5]), 25 µg/mL (≈ 87.9 µM) in experiment [1] (setting [6]), 103 µg/mL (≈ 362 µM) in experiment [2] (setting [7]) and 42 µg/mL (≈ 148 µM) in experiment [3] (setting [8]). Besides, the “PSAE/MH (MIC)” value in experiment [2] (Mueller Hinton Broth) is “Neg”. Moreover, the “EF/MH (MIC)” value in experiment [3] (Mueller Hinton Broth) is given as “Neg”. For the same compound, the “Ecoli/MH (MIC)” value in experiment [4] was “Neg”. Moreover, in experiment [4], the “Ecoli/Tsoy (MIC)” value is listed as “Neg”.
Turning to `CCCCCCCCC1OC(=O)C(OCC(=O)OCC)=C1C(=O)OCC` (stereo not drawn) [Compound 3], the “Weight Loss” value in the experiment “Weight loss screen” (day 1, printed with + sign) was 60 mg/kg: +1.8% (day 1). The MIC in experiment [1] (setting [5]) was found to be 150 µg/mL (≈ 405 µM); in experiment [1] (setting [6]) it was 146 µg/mL (≈ 394 µM); in experiment [2] (setting [9]) it was 173 µg/mL (≈ 467 µM); in experiment [2] (setting [7]), 186 µg/mL (≈ 502 µM); in experiment [3] (Mueller Hinton Broth, read-out: EF/MH (MIC)), 100 µg/mL (≈ 270 µM); in experiment [3] (setting [8]) it was 135 µg/mL (≈ 364 µM).
With `CCCCC1OC(=O)C(O)=C1C(=O)OCC` (stereo not drawn) [Compound 2], in “Weight loss screen” (day 4), the “Weight Loss” value is given as 60 mg/kg: 12.3% (day 4). Further, the “Weight Loss DIO” value in “Weight loss, DIO” (day 2) is recorded as “DIO: 20 mg/kg: 3.0% (day 2)”. The “SA/MH (MIC)” value in experiment [1] (Mueller Hinton Broth) is listed as “Neg”. Moreover, the “SA/Tsoy (MIC)” value in experiment [1] (Trypticase Soy Broth) is reported as “Neg”. Also, the MIC in experiment [2] (setting [9]) was 155 µg/mL (≈ 679 µM); in experiment [2] (setting [7]), 210 µg/mL (≈ 920 µM); in experiment [3] (setting [8]), 163 µg/mL (≈ 714 µM). For the same compound, in experiment [3] (Mueller Hinton Broth), the “EF/MH (MIC)” value is recorded as “Neg”. For the same compound, in experiment [4], the “Ecoli/MH (MIC)” value is on record as “Neg”. Besides, in experiment [4], the “Ecoli/Tsoy (MIC)” value is reported as “Neg”.
